The values below come from US8153773B2, “Synthesis and use of anti-reverse phosphorothioate analogs of the messenger RNA cap” (Board of Supervisors of Louisiana State University and …, priority 2007, dated 2012).

In one test the target is T1, DcpS (Homo sapiens, UniProt Q96C86).
T1 sequence (Q96C86 1-337): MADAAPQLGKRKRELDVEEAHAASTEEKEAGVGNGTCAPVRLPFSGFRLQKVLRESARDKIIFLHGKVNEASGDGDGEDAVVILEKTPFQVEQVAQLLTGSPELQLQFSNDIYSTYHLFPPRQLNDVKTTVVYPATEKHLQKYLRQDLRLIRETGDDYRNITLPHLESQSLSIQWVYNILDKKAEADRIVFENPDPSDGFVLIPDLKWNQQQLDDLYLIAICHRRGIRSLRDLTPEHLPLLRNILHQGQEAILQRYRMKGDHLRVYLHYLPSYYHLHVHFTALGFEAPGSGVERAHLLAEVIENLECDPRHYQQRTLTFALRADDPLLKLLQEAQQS
Nature of the test: Enzymatic hydrolysis by human DcpS. The following applies: conditions giving complete degradation of unmodified parent within 40-90 min, RP HPLC. Type of test: biochemical. Also noted: key: the analogs assigned as resistant remained completely undigested under the applied conditions; the analogs assigned as hydrolyzed were hydrolyzed by DcpS with efficiency comparable to the respective unmodified parent compound. Here is the method:
Human and nematode DcpS were expressed in Escherichia coli according to the procedures described previously (L. S. Cohen et al., “Nematode m7 GpppG and m3(2,2,7)GpppG decapping: activities in Ascaris embryos and characterization of C. elegans scavenger DcpS,” RNA, vol. 10, pp. 1609-1624 (2004)). Both proteins were stored at −80° C. in 20 mM Tris buffer, pH 7.5, containing 50 mM KCl, 0.2 mM EDTA, 1 mM DTT, 0.5 mM PMSF, and 20% glycerol. An appropriate cap analog at 1 mM concentration was treated with 5.0 or 7.0 μl of DcpS (from human or C. elegans, respectively) in 500 μl of 50 mM TRIS buffer, pH=7.9, containing 20 mM of MgCl2 and 60 mM of (NH4)2SO4 at 37° C. for 60-90 min. Every 15-20 min a 100 μl sample was collected from the reaction mixture and deactivated by incubation in 90° C. for 3 min. Collected samples were analyzed without further treatment by analytical RP HPLC using a linear gradient of methanol in 0.1 M KH2PO4, pH=6.0, from 0-50% within 15 min and UV-detection at 260 nm.
The new series of S-analogs were subjected to in vitro enzymatic hydrolysis catalyzed by DcpS from both human and C. elegans sources. In all experiments, the corresponding unmodified cap analog was used as a positive control, i.e., m^7GpppG for non-ARCA S-analogs and m2^7,2′-OGpppG for S-ARCAs. The amount of DcpS enzyme was optimized to provide complete degradation of the control substrate within 40-90 min. The samples collected from reaction mixtures at various time intervals were analyzed by RP HPLC (as described in Materials and Methods).
In Table 4, cap analogs at 4 μM concentration were subjected to enzymatic digestion by DcpS in conditions leading to complete degradation of the unmodified parent compound (i.e. m^7GpppG for non-ARCA S-analogs and m2^7,2′-OGpppG for ARCAs) within 40-90 min. Samples collected from reaction mixtures at various time intervals were analysed by RP HPLC with UV detection at 260 nm as described in Materials and Methods. […] The result was unchanged even if the reaction time was extended to 24 h, various amounts of enzyme were used, and composition of the reaction buffer was modified.

The next test relates to HC11 cells. Nature of the test: Translational efficiency of capped luciferase mRNA in HC11 cells. Type of test: cell-based, mouse. The following applies: Luc-A60 mRNA capped with the analog in HC11 cells, relative to m^7Gp3G-capped mRNA. As to the method:
Two methods, electroporation and nucleoporation, were used to deliver RNA into cells. In case of electroporation, 5 μg of RNA were introduced into 10^7 HC11 cells in a total volume 400 μl of serum-reduced RPMI 1640 medium in a Gene pulser cuvette (4 mm gap) with a Bio-Rad Genepulser™ set at 0.22 kV and 960 μF. Following discharge, the cells were washed twice with PBS, centrifuged for 2 min 300×g at room temperature, resuspended in prewarmed complete medium, and placed at 37° C. Nucleoporation was performed with an Amaxa Nucleofector II (Amaxa Biosystems) in accordance with manufacture's recommendations. One microgram of RNA was introduced into 10^6 HC11 cells with Nucleofector Solution V and the set of recommended regimens (program T-024).
For measurement of translational efficiency, cells were divided into several Eppendorf tubes, placed in a water bath at 37° C., and shaken. For measurement of mRNA stability, cells were distributed into 35-mm cell culture dishes and placed at 37° C. in a 5% CO2 humidified atmosphere. Cells were harvested at various times and washed twice with PBS.
For cytoplasmic RNA extraction, 2×10^5 cells were lysed in 175 μl of lysis buffer (50 mM Tris-HCl, pH 8.0, 140 mM NaCl, 1.5 mM MgCl2, 0.5% (v/v) Igepal (Sigma), and 1 mM dithiothreitol). RNAs were further purified using the RNeasy mini kit. For protein extraction, 2×10^5 cells were lysed in 200 μl of Luciferase Cell Culture Lysis Reagent (Promega). Luciferase activity of cell extracts was measured according to the manufacturer's protocol (Promega).
We also determined the translational efficiency in cultured cells for luciferase mRNA capped with S-ARCAs. This involved two measurements conducted at various times following nucleoporation—luciferase activity measured by luminometry in cleared cell lysates, and Luc-A60 levels measured by real-time PCR. Luciferase activity was normalized by the amount of luciferase mRNA that had been delivered into cells. To determine the amount of RNA present in the cells at a time immediately after nucleoporation, i.e., before any decay had occurred, cells were harvested at various times between 2 to 8 h post-nucleoporation, and cytoplasmic RNA was extracted. The amount of luciferase mRNA was measured by real time PCR using primers that amplify sequences near the 5′-end. Luciferase mRNA remaining at each time point was plotted as log10 ([RNA]) versus time to determine t1/2. The curve was extrapolated to 0 h, and the amount of RNA delivered into the cells was calculated. We defined conditions under which the accumulation of luciferase was linear with time, after an initial lag period of ˜30 min for recruitment of mRNA to ribosomes, completing the first polypeptide chain, and release of luciferase into the cytosol.

In the case of `CO[C@@H]1[C@H](O)[C@@H](COP(=O)(O)OP(=O)([O-])OP(=O)(O)OC[C@H]2O[C@@H](n3cnc4c(=O)[nH]c(N)nc43)[C@H](O)[C@@H]2O)O[C@H]1n1c[n+](C)c2c(O)nc(N)nc21` [m2^7,2′-OGpppG, reference compound], on DcpS, the “Resistance to enzymatic hydrolysis by DcpS (human)” value (shortened to “Resistance to enzymatic hydrolysis”) is listed as “hydrolyzed”. In addition, the Relative translational efficiency in the test with HC11 cells is 2.1 ± 0.2.

Take m2^7,2′-OGpppsG (D1) [Compound 4a]: the “Resistance to enzymatic hydrolysis” value on DcpS is given as “hydrolyzed”. The Relative translational efficiency with HC11 cells amounted to 2.5 ± 0.8.

Turning to m2^7,2′-OGpppsG (D2) [Compound 4b], the “Resistance to enzymatic hydrolysis” value on DcpS is listed as “hydrolyzed”. Moreover, in the test on HC11 cells, the Relative translational efficiency was 1.8 ± 0.4.

m2^7,2′-OGppspG (D1) [Compound 5a]: on DcpS, the “Resistance to enzymatic hydrolysis” value was “hydrolyzed”. The Relative translational efficiency in the test with HC11 cells (listed as m2^7,2′-OGppSpG (D1)) came out at 2.8 ± 0.3; in the test on HC11 cells (listed as m2^7,2′-OGppspG (D1)) it was 2.8.

For the compound m2^7,2′-OGppspG (D2) [Compound 5b], on DcpS, the “Resistance to enzymatic hydrolysis” value is listed as “hydrolyzed”. Moreover, the results for the Relative translational efficiency with HC11 cells (listed as m2^7,2′-OGppSpG (D2)) and in the test on HC11 cells (listed as m2^7,2′-OGppspG (D2)) were 5.1 ± 0.5 and 5.1, respectively.

Take m2^7,2′-OGpsppG (D1) [Compound 6a]: the “Resistance to enzymatic hydrolysis” value on DcpS is given as “resistant”. In the test with HC11 cells, this compound had a Relative translational efficiency of 2.0 ± 0.1.

Take m2^7,2′-OGpsppG (D2) [Compound 6b]: the “Resistance to enzymatic hydrolysis” value on DcpS is “resistant”. In addition, in the test with HC11 cells, the Relative translational efficiency amounted to 1.9 ± 0.1.
